The text below walks through data of ChEMBL document CHEMBL4385643, “Design of a brain-penetrant CDK4/6 inhibitor for glioblastoma” (Bioorg Med Chem Lett, 2019).

Experiment [1] concerns the target Serine/threonine-protein kinase 33 (Homo sapiens) (UniProt Q9BYT3). The experiment in a line: Inhibition of tracer 236 binding to recombinant full length human His-tagged STK33 expressed in baculovirus expression system at 0.1 uM measured after 60 mins by Lanthascreen assay relative to control.
Experiment [2] concerns the target Megakaryocyte-associated tyrosine-protein kinase (Homo sapiens) (UniProt P42679). The experiment in a line: Inhibition of recombinant full length human His-tagged HYL expressed in Escherichia coli expression system at 0.1 uM using tyrosine-1 peptide as substrate incubated for 60 mins by Z'-LYTE assay relative to control.
Experiment [3] addresses Mitogen-activated protein kinase 13 (Homo sapiens) (UniProt O15264). The experiment in a line: Inhibition of recombinant full length human His-tagged p38delta expressed in baculovirus expression system at 0.1 uM using serine/threonine-3 peptide as substrate incubated for 60 mins by Z'-LYTE assay relative to control.
The target in experiment [4] is Tyrosine-protein kinase FRK (Homo sapiens) (UniProt P42685). Kind of experiment: Inhibition of recombinant full length human GST-tagged FRK expressed in baculovirus expression system at 0.1 uM using tyrosine-1 peptide as substrate incubated for 60 mins by Z'-LYTE assay relative to control.
The target of experiment [5] is Mitogen-activated protein kinase kinase kinase 20 (Homo sapiens) (UniProt Q9NYL2). The experiment in a line: Inhibition of recombinant full length human GST-tagged ZAK expressed in baculovirus expression system at 0.1 uM using CREBtide as substrate 60 mins by Lanthascreen assay relative to control. A general note: In TR-FRET formats the signal depends on donor and acceptor labels being close together.

Experiment [6] deals with CDK17/Cyclin-Y (Homo sapiens) (UniProt Q00537+Q8ND76). The experiment in a line: Inhibition of recombinant full length human GST-tagged CDK17/Cyclin Y (2 to end amino acids) expressed in insect expression system at 0.1 uM using serine/threonine-12 peptide as substrate incubated for 60 mins by Z'-LYTE assay relative to control.
Experiment [7] has as its target Mitogen-activated protein kinase kinase kinase 10 (Homo sapiens) (UniProt Q02779). Kind of experiment: Inhibition of tracer 236 binding to recombinant full length human GST-tagged MLK2 expressed in baculovirus expression system at 0.1 uM measured after 60 mins by Lanthascreen assay.
Experiment [8] addresses Serine/threonine-protein kinase PLK1 (Homo sapiens) (UniProt P53350). The experiment in a line: Inhibition of recombinant full length human His-tagged PLK1 expressed in baculovirus expression system at 0.1 uM using serine/threonine-16 peptide as substrate incubated for 60 mins by Z'-LYTE assay relative to control.
In experiment [9] the target is Angiopoietin-1 receptor (Homo sapiens) (UniProt Q02763). Kind of experiment: Inhibition of recombinant human GST-tagged TIE2 (817 to 1101 residues) expressed in baculovirus expression system at 0.1 uM using tyrosine-5 peptide as substrate incubated for 60 mins by Z'-LYTE assay relative to control.
Sequence of Angiopoietin-1 receptor (Homo sapiens) (Q02763 whole entry, the tested form may be a part): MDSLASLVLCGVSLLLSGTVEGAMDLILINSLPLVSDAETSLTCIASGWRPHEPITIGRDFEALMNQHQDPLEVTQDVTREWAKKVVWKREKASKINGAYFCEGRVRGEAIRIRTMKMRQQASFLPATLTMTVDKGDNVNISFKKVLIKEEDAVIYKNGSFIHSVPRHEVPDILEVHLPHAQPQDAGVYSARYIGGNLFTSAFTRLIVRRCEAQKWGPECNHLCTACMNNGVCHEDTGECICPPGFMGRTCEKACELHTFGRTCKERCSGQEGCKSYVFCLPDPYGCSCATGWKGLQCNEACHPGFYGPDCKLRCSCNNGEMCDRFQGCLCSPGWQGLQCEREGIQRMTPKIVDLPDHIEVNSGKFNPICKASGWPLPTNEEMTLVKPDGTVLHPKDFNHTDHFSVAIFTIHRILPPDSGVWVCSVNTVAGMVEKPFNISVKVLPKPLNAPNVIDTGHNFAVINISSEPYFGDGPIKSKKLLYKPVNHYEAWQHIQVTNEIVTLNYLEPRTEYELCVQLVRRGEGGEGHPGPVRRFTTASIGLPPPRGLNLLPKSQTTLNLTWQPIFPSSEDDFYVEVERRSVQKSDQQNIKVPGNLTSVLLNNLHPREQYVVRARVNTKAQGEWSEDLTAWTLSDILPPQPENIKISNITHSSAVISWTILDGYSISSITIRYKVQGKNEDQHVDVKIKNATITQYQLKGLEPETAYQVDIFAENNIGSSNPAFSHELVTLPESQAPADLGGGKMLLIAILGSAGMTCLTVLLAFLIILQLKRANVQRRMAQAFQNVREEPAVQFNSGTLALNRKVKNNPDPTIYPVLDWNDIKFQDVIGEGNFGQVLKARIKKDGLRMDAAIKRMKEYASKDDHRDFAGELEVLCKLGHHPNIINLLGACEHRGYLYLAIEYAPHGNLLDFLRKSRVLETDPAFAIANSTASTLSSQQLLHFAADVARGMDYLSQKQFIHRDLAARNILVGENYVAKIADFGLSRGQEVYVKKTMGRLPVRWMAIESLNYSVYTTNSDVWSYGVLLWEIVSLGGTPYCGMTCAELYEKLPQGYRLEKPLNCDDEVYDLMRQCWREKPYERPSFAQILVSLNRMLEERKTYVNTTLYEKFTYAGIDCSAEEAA
Experiment [10] deals with CDK8/Cyclin C (Homo sapiens) (UniProt P49336+P24863). Kind of experiment: Inhibition of tracer 236 binding to recombinant full length human His-tagged CDK8/cyclin C expressed in baculovirus expression system at 0.1 uM measured after 60 mins by Lanthascreen assay.
In experiment [11] the target is Dual specificity tyrosine-phosphorylation-regulated kinase 4 (Homo sapiens) (UniProt Q9NR20). The experiment in a line: Inhibition of recombinant full length human GST-tagged DYRK4 expressed in baculovirus expression system at 0.1 uM using serine/threonine-9 peptide as substrate incubated for 60 mins by Z'-LYTE assay relative to control.
The target in experiment [12] is Protein kinase C alpha type (Homo sapiens) (UniProt P17252). Kind of experiment: Inhibition of recombinant human GST-tagged PKCalpha expressed in insect expression system at 0.1 uM using serine/threonine-7 peptide as substrate incubated for 60 mins by Z'-LYTE assay relative to control.
In experiment [13] the target is Serine/threonine-protein kinase 25 (Homo sapiens) (UniProt O00506). Kind of experiment: Inhibition of recombinant full length human GST-tagged YSK1 expressed in baculovirus expression system at 0.1 uM using serine/threonine-7 peptide as substrate incubated for 60 mins by Z'-LYTE assay relative to control.
Sequence of Serine/threonine-protein kinase 25 (Homo sapiens) (O00506 whole entry, looked up): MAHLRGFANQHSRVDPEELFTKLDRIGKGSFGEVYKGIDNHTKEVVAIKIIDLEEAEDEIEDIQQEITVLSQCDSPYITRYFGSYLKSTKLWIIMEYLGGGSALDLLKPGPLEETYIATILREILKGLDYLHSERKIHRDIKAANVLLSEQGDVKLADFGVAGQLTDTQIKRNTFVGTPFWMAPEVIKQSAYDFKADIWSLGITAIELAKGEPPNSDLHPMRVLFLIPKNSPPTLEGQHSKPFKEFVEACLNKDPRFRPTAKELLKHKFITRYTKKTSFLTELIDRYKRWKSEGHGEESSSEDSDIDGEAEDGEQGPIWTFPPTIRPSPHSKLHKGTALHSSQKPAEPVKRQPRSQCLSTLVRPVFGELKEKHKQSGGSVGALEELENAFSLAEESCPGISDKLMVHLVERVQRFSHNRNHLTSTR
The target in experiment [14] is Serine/threonine-protein kinase D1 (Homo sapiens) (UniProt Q15139). The experiment in a line: Inhibition of recombinant full length human GST-tagged PKD1 expressed in baculovirus expression system at 0.1 uM using serine/threonine-17 peptide as substrate incubated for 60 mins by Z'-LYTE assay relative to control.
In experiment [15] the target is Serine/threonine-protein kinase N1 (Homo sapiens) (UniProt Q16512). Kind of experiment: Inhibition of recombinant full length human GST-tagged PRK1 expressed in baculovirus expression system at 0.1 uM using serine/threonine-7 peptide as substrate incubated for 60 mins by Z'-LYTE assay relative to control.
Sequence of Serine/threonine-protein kinase N1 (Homo sapiens) (Q16512 2-942 limits assumed): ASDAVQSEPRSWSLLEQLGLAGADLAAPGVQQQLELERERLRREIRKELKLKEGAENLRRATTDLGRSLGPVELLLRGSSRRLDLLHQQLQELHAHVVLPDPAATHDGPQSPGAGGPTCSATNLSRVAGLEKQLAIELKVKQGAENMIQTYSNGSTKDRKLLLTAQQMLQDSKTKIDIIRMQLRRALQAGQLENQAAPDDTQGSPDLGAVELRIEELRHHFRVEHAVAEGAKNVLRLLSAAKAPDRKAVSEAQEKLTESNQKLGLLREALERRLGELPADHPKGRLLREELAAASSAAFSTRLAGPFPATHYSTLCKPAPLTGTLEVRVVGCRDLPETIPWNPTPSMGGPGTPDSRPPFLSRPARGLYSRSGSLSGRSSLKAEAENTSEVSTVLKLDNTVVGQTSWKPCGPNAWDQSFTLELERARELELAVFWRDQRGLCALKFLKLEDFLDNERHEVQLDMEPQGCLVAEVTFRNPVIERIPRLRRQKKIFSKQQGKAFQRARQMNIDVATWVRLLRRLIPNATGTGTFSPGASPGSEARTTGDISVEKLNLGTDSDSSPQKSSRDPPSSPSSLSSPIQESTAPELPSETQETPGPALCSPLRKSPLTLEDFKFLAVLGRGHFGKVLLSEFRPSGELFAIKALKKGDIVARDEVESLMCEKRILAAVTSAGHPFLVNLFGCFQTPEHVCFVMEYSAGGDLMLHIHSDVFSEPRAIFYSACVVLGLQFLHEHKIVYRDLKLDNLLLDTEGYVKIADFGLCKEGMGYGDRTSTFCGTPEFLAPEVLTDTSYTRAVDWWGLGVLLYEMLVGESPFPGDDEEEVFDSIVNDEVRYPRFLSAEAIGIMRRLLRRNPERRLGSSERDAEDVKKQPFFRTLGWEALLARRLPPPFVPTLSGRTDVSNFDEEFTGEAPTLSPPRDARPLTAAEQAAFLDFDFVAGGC
Experiment [16] has as its target Calcium/calmodulin-dependent protein kinase kinase 2 (Homo sapiens) (UniProt Q96RR4). Kind of experiment: Inhibition of tracer 236 binding to recombinant full length human GST-tagged CAMKK2 expressed in baculovirus expression system at 0.1 uM measured after 60 mins by Lanthascreen assay relative to control.
Experiment [17] has as its target Tyrosine-protein kinase CSK (Homo sapiens) (UniProt P41240). The experiment in a line: Inhibition of recombinant full length human His-tagged CSK expressed in Escherichia coli expression system at 0.1 uM using tyrosine-2 peptide as substrate incubated for 60 mins by Z'-LYTE assay relative to control.
For experiment [18], the target named is SRSF protein kinase 1 (Homo sapiens) (UniProt Q96SB4). Kind of experiment: Inhibition of recombinant full length human His-tagged SRPK1 expressed in baculovirus expression system at 0.1 uM using serine/threonine-18 peptide as substrate incubated for 60 mins by Z'-LYTE assay relative to control.
Experiment [19] has as its target Dual specificity protein kinase CLK3 (Homo sapiens) (UniProt P49761). The experiment in a line: Inhibition of recombinant full length human GST-tagged CLK3 expressed in Baculovirus expression system at 0.1 uM using serine/threonine-18 peptide as substrate incubated for 60 mins by Z'-LYTE assay relative to control.
Experiment [20] addresses Rho-associated protein kinase 2 (Homo sapiens) (UniProt O75116). Kind of experiment: Inhibition of recombinant human GST-tagged ROCK2 catalytic domain (1 to 552 residues) expressed in baculovirus expression system at 0.1 uM using serine/threonine-13 peptide as substrate incubated for 60 mins by Z'-LYTE assay relative to control.
For experiment [21], the target named is LIM domain kinase 1 (Homo sapiens) (UniProt P53667). The experiment in a line: Inhibition of tracer 236 binding to recombinant human His-tagged LIMK1 catalytic domain (285 to 638 residues) expressed in baculovirus expression system at 0.1 uM measured after 60 mins by Lanthascreen assay relative to control.
Sequence of LIM domain kinase 1 (Homo sapiens) (P53667 whole entry, looked up, the tested form may be a part): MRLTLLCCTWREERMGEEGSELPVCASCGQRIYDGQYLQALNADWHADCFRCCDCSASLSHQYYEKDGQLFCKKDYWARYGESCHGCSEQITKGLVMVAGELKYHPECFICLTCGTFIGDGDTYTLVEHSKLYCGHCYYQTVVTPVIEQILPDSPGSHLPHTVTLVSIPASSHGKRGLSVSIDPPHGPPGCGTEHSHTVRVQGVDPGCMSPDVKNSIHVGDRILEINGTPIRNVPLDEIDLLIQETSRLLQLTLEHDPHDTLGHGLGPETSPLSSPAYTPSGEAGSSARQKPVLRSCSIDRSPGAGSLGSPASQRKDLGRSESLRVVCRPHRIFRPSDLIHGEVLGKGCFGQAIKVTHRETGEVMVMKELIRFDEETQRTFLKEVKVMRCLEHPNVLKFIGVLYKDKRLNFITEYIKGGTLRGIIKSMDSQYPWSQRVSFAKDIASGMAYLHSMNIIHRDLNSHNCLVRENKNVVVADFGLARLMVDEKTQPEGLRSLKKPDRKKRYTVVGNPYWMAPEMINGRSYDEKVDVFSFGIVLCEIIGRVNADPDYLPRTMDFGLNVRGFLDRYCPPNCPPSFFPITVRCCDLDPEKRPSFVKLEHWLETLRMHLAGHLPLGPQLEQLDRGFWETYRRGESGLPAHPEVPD
Experiment [22] concerns the target Serine/threonine-protein kinase PLK3 (Homo sapiens) (UniProt Q9H4B4). The experiment in a line: Inhibition of recombinant human GST-tagged PLK3 catalytic domain (58 to 340 residues) expressed in baculovirus expression system at 0.1 uM using serine/threonine-16 peptide as substrate incubated for 60 mins by Z'-LYTE assay relative to control.
Experiment [23] deals with Cytoplasmic tyrosine-protein kinase BMX (Homo sapiens) (UniProt P51813). Kind of experiment: Inhibition of recombinant full length human His-tagged BMX expressed in baculovirus expression system at 0.1 uM using tyrosine-1 peptide as substrate incubated for 60 mins by Z'-LYTE assay relative to control.
Experiment [24] has as its target Calcium/calmodulin-dependent protein kinase type 1D (Homo sapiens) (UniProt Q8IU85). Kind of experiment: Inhibition of recombinant full length human His-tagged CAMK1delta expressed in baculovirus expression system at 0.1 uM using serine/threonine-25 peptide as substrate incubated for 60 mins by Z'-LYTE assay relative to control.

Sequence of Serine/threonine-protein kinase PLK1 (Homo sapiens) (P53350 whole entry, the tested form may be a part): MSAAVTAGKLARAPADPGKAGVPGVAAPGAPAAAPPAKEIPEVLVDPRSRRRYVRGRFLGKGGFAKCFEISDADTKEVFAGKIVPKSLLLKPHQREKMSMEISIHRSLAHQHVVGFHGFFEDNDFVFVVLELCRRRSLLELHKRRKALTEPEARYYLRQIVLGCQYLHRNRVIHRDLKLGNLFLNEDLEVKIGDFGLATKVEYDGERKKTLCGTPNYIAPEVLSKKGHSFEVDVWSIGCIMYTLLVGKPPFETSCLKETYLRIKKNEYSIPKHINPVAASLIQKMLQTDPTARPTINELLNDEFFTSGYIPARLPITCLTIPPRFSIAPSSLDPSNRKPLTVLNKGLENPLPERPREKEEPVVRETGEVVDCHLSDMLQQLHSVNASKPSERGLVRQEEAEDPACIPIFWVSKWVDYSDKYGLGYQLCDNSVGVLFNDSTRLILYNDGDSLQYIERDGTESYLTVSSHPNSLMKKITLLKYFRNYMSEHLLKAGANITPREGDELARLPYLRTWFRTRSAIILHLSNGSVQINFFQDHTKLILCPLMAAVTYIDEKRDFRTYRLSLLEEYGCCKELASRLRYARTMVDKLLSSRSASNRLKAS
Sequence of Mitogen-activated protein kinase 13 (Homo sapiens) (O15264 whole entry): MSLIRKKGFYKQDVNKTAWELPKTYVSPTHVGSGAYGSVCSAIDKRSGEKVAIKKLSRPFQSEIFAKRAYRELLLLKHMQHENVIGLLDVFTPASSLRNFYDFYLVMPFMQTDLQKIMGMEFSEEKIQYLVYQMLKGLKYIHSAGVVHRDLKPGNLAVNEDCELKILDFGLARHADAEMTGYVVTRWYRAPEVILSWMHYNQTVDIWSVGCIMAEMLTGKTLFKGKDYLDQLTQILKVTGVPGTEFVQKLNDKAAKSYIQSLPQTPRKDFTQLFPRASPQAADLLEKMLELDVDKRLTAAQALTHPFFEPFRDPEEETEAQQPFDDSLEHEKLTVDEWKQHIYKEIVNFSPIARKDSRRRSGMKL
Sequence of Serine/threonine-protein kinase 33 (Homo sapiens) (Q9BYT3 whole entry, looked up): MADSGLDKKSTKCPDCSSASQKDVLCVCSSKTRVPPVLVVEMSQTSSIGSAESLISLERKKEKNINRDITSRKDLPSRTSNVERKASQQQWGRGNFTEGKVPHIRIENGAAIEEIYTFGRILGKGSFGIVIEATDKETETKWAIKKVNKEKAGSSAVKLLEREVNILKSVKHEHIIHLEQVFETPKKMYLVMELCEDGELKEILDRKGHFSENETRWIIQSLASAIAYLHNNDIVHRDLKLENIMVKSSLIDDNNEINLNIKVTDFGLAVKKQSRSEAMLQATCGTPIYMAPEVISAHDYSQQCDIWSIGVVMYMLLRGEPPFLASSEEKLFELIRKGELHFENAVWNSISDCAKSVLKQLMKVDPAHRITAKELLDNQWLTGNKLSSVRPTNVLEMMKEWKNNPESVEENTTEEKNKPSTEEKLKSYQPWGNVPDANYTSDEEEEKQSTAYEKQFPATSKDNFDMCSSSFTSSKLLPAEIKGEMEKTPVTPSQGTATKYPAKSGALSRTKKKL
Sequence of Calcium/calmodulin-dependent protein kinase type 1D (Homo sapiens) (Q8IU85 whole entry, looked up): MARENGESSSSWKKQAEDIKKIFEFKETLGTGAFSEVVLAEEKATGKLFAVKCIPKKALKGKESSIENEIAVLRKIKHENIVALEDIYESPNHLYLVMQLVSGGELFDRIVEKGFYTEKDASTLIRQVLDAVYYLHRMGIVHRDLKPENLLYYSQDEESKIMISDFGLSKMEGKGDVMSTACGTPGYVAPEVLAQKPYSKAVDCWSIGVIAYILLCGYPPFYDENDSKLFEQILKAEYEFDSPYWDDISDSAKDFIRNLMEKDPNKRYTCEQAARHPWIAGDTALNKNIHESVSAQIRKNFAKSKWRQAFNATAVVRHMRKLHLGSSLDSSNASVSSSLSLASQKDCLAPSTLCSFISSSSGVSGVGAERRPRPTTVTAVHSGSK

As usually defined, the inhibition is the drop in the measured response relative to a control, in per cent. Take `CCN1CC2(C1)CN(c1ccc(Nc3ncc(F)c(-c4cnn5c4[C@H](C)CCCC5)n3)nc1)C2`: the inhibition in experiment [1] was 50%; in [2] it was -0.5%; in experiment [3], 3.5%; in experiment [4] it was 1.5%; in experiment [5], 5%; in experiment [6], 61.5%. Also, the inhibition in [7] is 18%; in experiment [8] it was 2%; in [9] it was -0.5%; in experiment [10], 75%; in [11], 3%; in experiment [12] it was 33%. The inhibition was determined as 10.5% in experiment [13]; 98.5% in experiment [14]; 8.5% in [15]; 44% in experiment [16]; 3% in experiment [17]; 4.5% in experiment [18]. For the same compound, the inhibition in experiment [19] is 4%; in experiment [20], 7%; in [21] it was -2%; in experiment [22], 7.5%; in experiment [23], -2%; in experiment [24], 13.5%.

As for `CCN1CCN(Cc2ccc(Nc3ncc(F)c(-c4cc(F)c5nc(C)n(C(C)C)c5c4)n3)nc2)CC1` [ABEMACICLIB], the inhibition in experiment [1] was found to be 50.8%; in experiment [2], 0%; in experiment [3], 7%; in [4] it was 5.5%; in experiment [5] it was 1.9%; in experiment [6], 58%. Besides, the inhibition in experiment [7] is 10.6%; in [8] it was 8.5%; in experiment [9] it was -2%; in [10], 24.2%; in [11], 5%; in experiment [12], 77.5%. Further, the inhibition was determined as 15% in experiment [13]; 62.5% in experiment [14]; 7% in experiment [15]; 69.4% in [16]; 4% in experiment [17]; 6% in experiment [18]. The inhibition in experiment [19] is 6.5%; in experiment [20] it was 18.5%; in experiment [21] it was 3.7%; in experiment [22] it was -3.5%; in experiment [23], 5.5%; in [24], 14%.
